These results are taken from US20250127800A1, “PYRIMIDINE OR PYRIDINE DERIVATIVE AND MEDICINAL USE THEREOF” (SIGNET THERAPEUTICS INC., priority 2021, published 2025).

Where two headings read alike, the source gives them in different places.

One data set deals with FAK (Homo sapiens (Human), UniProt Q05397). The data set can be described thus: In vitro enzymatic inhibitory activity, FAK kinase (HTRF KinEASE-TK).
Another data set has as its system SNU-668 cells. The data set can be described thus: Cell proliferation inhibition, SNU-668 (CELL TITER-GLO). It counts as cell-based. As to conditions: Homo sapiens, SNU668, 96 h; SNU-668, 4 days. The procedure: (§1) • a. SNU-668 cells (catalog number: 00668, KCLB) or NUGC4 cells (catalog number: 0834, JCRB) were allowed to grow to 70%-80% confluence, the supernatant of the culture medium was pipetitted off, rinsed once with PBS and then pipetitted off; • b. To a 10 cm dish was added 1 mL of 0.25% trypsin, votexed to homogenity and then place into incubator for digestion for 2-3 min; • c. The culture dish is removed from the incubator added with 2-3 mL complete culture medium to terminate the digestion, pipetitted into a 15 mL centrifuge tube, and then centrifuged in centrifuge at 1000 rpm for 5 minutes; • d. The supernatant was pipetitted off, and the cells were resuspended in 1 mL of complete culture medium, and then counted; • e. 1000 cells were plated into each well of 96-well plate, and then cultured overnight in a cell incubator, 2) Cell Administration with Compounds • a. Compounds to be tested were dissolved and votexed to homogeneity; • b. Each compound was serielly diluted in 1:3 ratio from 1 mM stock solution to 9 gradient concentrations; • c. The plate seeded with cells was taken out from the incubator, pipetitted off culture medium, and then added slowly in each well with 100 μL fresh culture medium by multi-channel pipette. Wells are labeled by corresponding compounds and concentrations, and then gently added with 100 μL compound-containing culture medium along the well wall by multi-channel pipette; • d. After the addition to all wells, the plate was gently shaken to allow homogeneous spread of the compound, and then put back to the incubator, with time recorded;
(§2) 4 days after the addition of compounds, the culture medium was removed and mixed at 100 μL from each well with cell titer-glo testing liquid in 1:1 ratio. The mixture was incubated with shaking at room temperature for 10 min and then counted with Plate reader.

For another data set, the system named is NUGC4 cells. The data set can be described thus: Cell proliferation inhibition, NUGC4 (CELL TITER-GLO). Type of data set: cell-based. The following applies: Homo sapiens, NUGC-4, 96 h; NUGC4, 4 days. The procedure: as §1, §2
Data set [1] is described as follows: In vivo pharmacokinetic evaluation in SD rats, gavage. The following applies: rat, plasma, po, male SD rats. The procedure: Three male SD rats were administered with compounds in a single dose of 5 mg/kg or 3 mg/kg by gavage, and blood samples were collected before administration and at 0.25, 0.5, 1, 2, 4, 6, 8, and 24 h after administration.
Preparation of solutions of compounds to be dosed at 5 mg/kg: 5.5 mg compound (converted based on purity) was accurately weighed and added to 0.55 mL of DMSO. Clear solutions were obtained after stirring and sonication. 0.5 mL of each of the above solutions was added with 1 mL of Solutol, stirred for 1 minute; and then added with 8.5 mL of physiological saline and stirred for 1 minute, to obtain a clear solution at 0.5 mg/mL concentration.
Preparation of a solution of compounds to be dosed at 3 mg/kg: 3.6 mg compound (converted according to purity) was accurately weighed and added to 0.6 mL of DMSO. Clear solutions were obtained after stirring and sonication. 0.5 mL of each of the above solutions was added with 1 mL of Solutol and stirred for 1 minute; and then added with 8.5 mL of physiological saline and stirred for 1 minute, to obtain a clear solution at 0.3 mg/mL concentration.
Rats were administered the formulations prepared in step 2 by gavage at a dose of 10 mL/kg. The rats were fasted overnight before the administration and resumed feeding 4 hours after administration. Throughout the entire experiment, the animals were free to access drinking water.
The plasma concentration was measured using LC-MS/MS method.

[2] abbreviates: FAK kinase, enzyme pre-incubation 15 minutes at 25° C.

Sequence of FAK (Q05397 whole entry, species assumed): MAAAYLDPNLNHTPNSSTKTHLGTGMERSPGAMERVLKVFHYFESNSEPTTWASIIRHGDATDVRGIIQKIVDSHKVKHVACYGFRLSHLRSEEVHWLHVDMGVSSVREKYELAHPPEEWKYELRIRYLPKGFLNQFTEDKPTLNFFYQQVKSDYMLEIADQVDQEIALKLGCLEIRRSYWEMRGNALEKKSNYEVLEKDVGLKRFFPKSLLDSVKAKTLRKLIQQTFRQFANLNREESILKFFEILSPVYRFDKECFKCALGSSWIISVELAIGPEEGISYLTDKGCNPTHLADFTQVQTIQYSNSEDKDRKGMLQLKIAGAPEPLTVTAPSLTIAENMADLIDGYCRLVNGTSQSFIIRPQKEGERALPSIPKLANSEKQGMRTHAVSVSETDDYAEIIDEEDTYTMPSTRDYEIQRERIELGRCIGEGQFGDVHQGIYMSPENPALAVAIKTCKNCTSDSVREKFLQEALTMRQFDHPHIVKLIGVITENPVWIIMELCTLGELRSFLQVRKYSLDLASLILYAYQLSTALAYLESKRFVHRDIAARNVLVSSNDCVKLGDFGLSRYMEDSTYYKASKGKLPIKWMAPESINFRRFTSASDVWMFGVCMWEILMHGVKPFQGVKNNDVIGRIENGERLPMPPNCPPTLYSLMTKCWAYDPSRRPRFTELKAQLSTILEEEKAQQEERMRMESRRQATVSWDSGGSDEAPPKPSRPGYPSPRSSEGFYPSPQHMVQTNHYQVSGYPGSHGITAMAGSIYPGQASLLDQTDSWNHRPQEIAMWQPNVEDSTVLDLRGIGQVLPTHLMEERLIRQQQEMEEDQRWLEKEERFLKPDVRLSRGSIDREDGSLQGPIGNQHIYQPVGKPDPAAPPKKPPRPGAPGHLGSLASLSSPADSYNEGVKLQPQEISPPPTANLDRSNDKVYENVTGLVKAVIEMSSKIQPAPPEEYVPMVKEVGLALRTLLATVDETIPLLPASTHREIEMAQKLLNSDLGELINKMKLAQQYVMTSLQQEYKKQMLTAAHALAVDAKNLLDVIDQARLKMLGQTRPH

As for `C=CC(=O)N1CCC(CNC(=O)c2ccc(Nc3ncc(C(F)(F)F)c(Nc4ccccc4P(C)(C)=O)n3)c(OC)c2)CC1` [Compound 8, N-((1-acryloylpiperidin-4-yl)methyl)-4-((4-((2-(dimethylphosphoryl)phenyl)amino)-5-(trifluoromethyl)pyrimidin-2-yl)amino)-3-methoxybenzamide], the 50% inhibitory concentration (IC50) against FAK (setting [2]) came to 5.79 nM.

`C=CC(=O)N1CCCC(c2cccc(NCc3ccc(Nc4ncc(Cl)c(Nc5ccccc5C(=O)NC)n4)cc3)c2)C1` (stereo not drawn) [Compound 15] displayed an IC50 in the data set with SNU-668 cells of 110 nM.

On to `C=CC(=O)N1CCC[C@H](c2cccc(NCc3ccc(Nc4ncc(C(F)(F)F)c(Nc5ccccc5C(=O)NC)n4)cc3)c2)C1` [Compound 34, (R)-2-((2-((4-(((3-(1-acryloylpiperidin-3-yl)phenyl)amino)methyl)phenyl)amino)-5-(trifluoromethyl)pyrimidin-4-yl)amino)-N-methylbenzamide], for which the values for the 50% inhibitory concentration (IC50) with NUGC4 cells and against FAK (setting [2]) were 80 nM and 1.27 nM, respectively.

For the compound `C/C=C/C(=O)N1CCCC(c2cccc(NCc3ccc(Nc4ncc(C(F)(F)F)c(Nc5ccccc5C(=O)NC)n4)cc3)c2)C1` (stereo not drawn) [Compound 32, (E)-2-((2-((4-(((3-(1-(but-2-enoyl)piperidin-3-yl)phenyl)amino)methyl)phenyl)amino)-5-(trifluoromethyl)pyrimidin-4-yl)amino)-N-methylbenzamide], the IC50 was 40 nM with NUGC4 cells and 3.43 nM against FAK (setting [2]).

As to `C=CC(=O)N1CCCC(c2cccc(NCc3ccc(Nc4ncc(Br)c(Nc5ccccc5C(=O)NC)n4)cc3)c2)C1` (stereo not drawn) [Compound 16, 2-((2-((4-(((3-(1-acryloylpiperidin-3-yl)phenyl)amino)methyl)phenyl)amino)-5-bromopyrimidin-4-yl)amino)-N-methylbenzamide], the 50% inhibitory concentration (IC50) at FAK (setting [2]) came to 6.73 nM; with SNU-668 cells, 60 nM.

`C=CC(=O)N1CCC(CNC(=O)c2ccc(Nc3ncc(C(F)(F)F)c(Nc4ccccc4P(C)(C)=O)n3)cc2)CC1` [Compound 7, N-((1-acryloylpiperidin-4-yl)methyl)-4-((4-((2-(dimethylphosphoryl)phenyl)amino)-5-(trifluoromethyl)pyrimidin-2-yl)amino)benzamide]: the concentration for half-maximal inhibition (IC50) against FAK (setting [2]) is 3.58 nM.

Turning to `C=C(F)C(=O)N1CCCC(c2cccc(NCc3ccc(Nc4ncc(C(F)(F)F)c(Nc5ccccc5C(=O)NC)n4)cc3)c2)C1` (stereo not drawn) [Compound 33, 2-((2-((4-(((3-(1-(2-fluoroacryloyl)piperidin-3-yl)phenyl)amino)methyl)phenyl)amino)-5-(trifluoromethyl)pyrimidin-4-yl)amino)-N-methylbenzamide], half-maximal inhibition in the data set with NUGC4 cells (IC50) was put at 20 nM.

`C=CC(=O)N1CCC[C@H](c2cccc(NCc3ccc(Nc4ncc(C(F)(F)F)c(Nc5ccccc5C(=O)NOC)n4)cc3)c2)C1` [Compound 36, (R) 2-((2-((4-(((3-(1-acryloylpiperidin-3-yl)phenyl)amino)methyl)phenyl)amino)-5-(trifluoromethyl)pyrimidin-4-yl)amino)-N-methoxybenzamide] yielded a 50% inhibitory concentration (IC50) with NUGC4 cells of 90 nM. The midpoint of inhibition against FAK (setting [2]), the IC50, lay at 0.97 nM. Moreover, in data set [1] (3 mg/kg), the AUC(0-inf) was found to be 0.711 µM·h, the area under the curve AUC(0-t) stood at 0.689 µM·h, the highest level (Cmax) was 146 nM and the Tmax was 2.67 h. This compound showed a half-life in data set [1] (3 mg/kg) of 1.2 h.

Take `C=CC(=O)N1CCCC(c2cccc(NCc3ccc(Nc4ncc(C(F)(F)F)c(Nc5ccccc5C(=O)NCC)n4)cc3)c2)C1` (stereo not drawn) [Compound 17, 2-((2-((4-(((3-(1-acryloylpiperidin-3-yl)phenyl)amino)methyl)phenyl)amino)-5-(trifluoromethyl)pyrimidin-4-yl)amino)-N-ethylbenzamide]: the half-maximal inhibitory concentration (IC50) is 6.13 nM against FAK (setting [2]) and below 10 nM in the data set with SNU-668 cells.

`C=CC(=O)N1CCCC(c2cccc(NCc3ccc(Nc4ncc(C(F)(F)F)c(NCc5nccnc5N(C)S(C)(=O)=O)n4)cc3)c2)C1` (stereo not drawn) [Compound 14, N-(3-(((2-((4-(((3-(1-acryloylpiperidin-3-yl)phenyl)amino)methyl)phenyl)amino)-5-(trifluoromethyl)pyrimidin-4-yl)amino)methyl)pyrazin-2-yl)-N-methylmethanesulfonamide] registered an IC50 against FAK (setting [2]) of 4.36 nM.

As to `C=CC(=O)N1CCCC(c2cccc(NCc3ccc(Nc4ncc(C(F)(F)F)c(Nc5ccccc5C(=O)NC(C)C)n4)cc3)c2)C1` (stereo not drawn) [Compound 18, 2-((2-((4-(((3-(1-acryloylpiperidin-3-yl)phenyl)amino)methyl)phenyl)amino)-5-(trifluoromethyl)pyrimidin-4-yl)amino)-N-isopropylbenzamide], the IC50 is 17.9 nM against FAK (setting [2]) and 140 nM in the data set on SNU-668 cells.

In the case of `C=CC(=O)N1CCC(NC(=O)c2ccc(Nc3ncc(C(F)(F)F)c(NCc4nccnc4N(C)S(C)(=O)=O)n3)c(OC)c2)CC1` [Compound 1, N-(1-acryloylpiperidin-4-yl)-3-methoxy-4-((4-(((3-(N-methylmethanesulfonylamido)pyrazin-2-yl)methyl)amino)-5-(trifluoromethyl)pyrimidin-2-yl)amino)benzamide], 1.13 nM corresponded to half-maximal inhibition on FAK (setting [2]) (IC50).

Regarding `C=C(C)C(=O)N1CCCC(c2cccc(NCc3ccc(Nc4ncc(C(F)(F)F)c(Nc5ccccc5C(=O)NC)n4)cc3)c2)C1` (stereo not drawn) [Compound 24, 2-((2-((4-(((3-(1-methylacryloylpiperidin-3-yl)phenyl)amino)methyl)phenyl)amino)-5-(trifluoromethyl)pyrimidin-4-yl)amino)-N-methylbenzamide], it took 20 nM to reach half-maximal inhibition with NUGC4 cells (IC50).

For `C=CC(=O)N1CCCC(c2cccc(NCc3ccc(Nc4ncc(C(F)(F)F)c(Nc5cccc6c5C(=O)N(C)C6)n4)cc3)c2)C1` (stereo not drawn) [Compound 20, 7-((2-((4-(((3-(1-acryloylpiperidin-3-yl)phenyl)amino)methyl)phenyl)amino)-5-(trifluoromethyl)pyrimidin-4-yl)amino)-2-methylisoindolin-1-one], the IC50 with NUGC4 cells was found to be 340 nM; against FAK (setting [2]) it was 4.98 nM.

As for `CC#CC(=O)N1CCCC(c2cccc(NCc3ccc(Nc4ncc(C(F)(F)F)c(Nc5ccccc5C(=O)NC)n4)cc3)c2)C1` (stereo not drawn) [Compound 21, 2-((2-((4-(((3-(1-(2-butynoyl)piperidin-3-yl)phenyl)amino)methyl)phenyl)amino)-5-(trifluoromethyl)pyrimidin-4-yl)amino)-N-methylbenzamide], the results for the IC50 in the data set with NUGC4 cells and at FAK (setting [2]) were 40 nM and 4.33 nM, respectively.

Turning to `C=CC(=O)N1CCC[C@@H](c2cccc(NCc3ccc(Nc4ncc(C(F)(F)F)c(Nc5ccccc5C(=O)NOC)n4)cc3)c2)C1` [Compound 37, (S) 2-((2-((4-(((3-(1-acryloylpiperidin-3-yl)phenyl)amino)methyl)phenyl)amino)-5-(trifluoromethyl)pyrimidin-4-yl)amino)-N-methoxybenzamide], in the data set on NUGC4 cells, the 50% inhibitory concentration (IC50) was 120 nM. On FAK, this compound yielded an IC50 of 1.35 nM. Further, in data set [1] (3 mg/kg), the AUC(0-inf) worked out at 0.368 µM·h, the AUC(0-t) stood at 0.361 µM·h, the Cmax came to 87.2 nM and the Tmax was 2.67 h. Further, the half-life in data set [1] (3 mg/kg) is 1.07 h.

`C=CC(=O)N1CCCC(c2cccc(NCc3ccc(Nc4ncc(C(F)(F)F)c(Nc5ccccc5P(C)(C)=O)n4)cc3)c2)C1` (stereo not drawn) [Compound 10, 1-(3-(3-((4-((4-((2-(dimethylphosphoryl)phenyl)amino)-5-(trifluoromethyl)pyrimidin-2-yl)amino)benzyl)amino)phenyl)piperidin-1-yl)prop-2-en-1-one] had an IC50 on FAK (setting [2]) of 15.8 nM.

`C=CC(=O)N1CCC[C@@H](c2cccc(NCc3ccc(Nc4ncc(C(F)(F)F)c(Nc5ccccc5C(=O)NC)n4)cc3)c2)C1` [Compound 35, (S)-2-((2-((4-(((3-(1-acryloylpiperidin-3-yl)phenyl)amino)methyl)phenyl)amino)-5-(trifluoromethyl)pyrimidin-4-yl)amino)-N-methylbenzamide] returned a concentration for half-maximal inhibition (IC50) on FAK (setting [2]) of 1.45 nM. Further, in data set [1] (5 mg/kg), the area under the curve AUC(0-inf) is 0.548 µM·h, the AUC(0-t) is 0.54 µM·h, the peak level (Cmax) was 130 nM and the Tmax stood at 2.67 h. The compound also gave a half-life in data set [1] (5 mg/kg) of 0.96 h.
